Reference: patent publication US10072034B2, “Kinase inhibitors” (Respivert Limited, priority 2016, dated 2018)
In brackets after ≈: the same amount, converted by molar mass. Counter-ions that a name gives are not always drawn. Like-named read-outs stand apart in the source and are kept apart here.

Columns and labels:
[1] = Solubility in fasted-state simulated colonic fluid (FaSSCoF) at pH 6.5; type: physicochemical; conditions: pH 6.5, 25° C.; for solubility thermodynamic at 24 h: fasted-state simulated colonic fluid (FaSSCoF), 25 °C, pH 6.5, fassgf or other biorelevant, thermodynamic from solid
Method: The solubilities of compounds of the invention in FaSSCoF at pH 6.5 are determined using a modification of a previously-reported procedure (Vertzoni, M., et al. Pharm. Res. 2010, 27, 2187-2196). In place of the bile salt extract employed in the original procedure (which extract is no longer available), the modified procedure uses a mixture of sodium taurocholate (0.15 g), glycocholic acid (0.15 g), ursodeoxycholic acid (0.05 g), cholic acid (0.05 g), and glycodeoxycholic acid (0.05 g). These five bile acids are ground together with a mortar and pestle to produce a fine white powder that is incorporated into the FaSSCoF, as outlined below.
FaSSCoF medium: Tris(hydroxymethyl)aminomethane (Tris; 0.275 g) and maleic acid (0.44 g) are dissolved in water (35 mL) to give a solution whose pH is adjusted to 6.5 by treatment with 0.5M NaOH (ca. 12 mL). The solution is then made up to 50 mL with water. A portion of this Tris/maleate buffer solution (ca. 25 mL) is added to a 0.5 L round-bottomed flask, before being treated with 0.00565 g of the bile acid mixture described above. Solutions of phosphatidylcholine (0.0111 g) in DCM (0.15 mL) and palmitic acid (0.0013 g) in DCM (0.15 mL) are added, then the organic solvent is evaporated off under reduced pressure at 40° C. until a clear solution, with no perceptible DCM odour, is achieved. The volume of the evaporated solution is adjusted to 50 mL by addition of the remainder of Tris/maleate buffer, then BSA (0.115 g) is added, before being dissolved by gentle agitation.
Solubility Determination: Test compounds are suspended in the pH 6.5 FaSSCoF medium to give a maximum final concentration of 2-10 mg/mL. The suspensions are equilibrated at 25° C. for 24 h, before being filtered through a glass fibre C filter. The filtrates are then diluted as appropriate for injection and quantification by HPLC with reference to a standard. Different volumes of the standard, diluted and undiluted sample solutions are injected and the solubilities are calculated using the peak areas determined by integration of the peak found at the same retention time as the principal peak in the standard injection.

[2] = tested on: IL-8 release in PBMCs; test: LPS-induced IL-8 release in PBMC cells (assay (b)); type: cell-based; conditions: Homo sapiens, LPS-stimulated PBMCs
Excerpt: Peripheral blood mononuclear cells (PBMCs) from healthy subjects are separated from whole blood using a density gradient (Lymphoprep, Axis-Shield Healthcare). […] The supernatant is harvested for determination of IL-8 and TNFα concentrations by sandwich ELISA (Duo-set, R&D systems) and read on the fluorescence microplate reader (Varioskan® Flash, ThermoFisher Scientific).

[3] = Run 1, read-out: pH 6.5 FaSSCoF Solubility Run 1
[4] = Run 2, read-out: pH 6.5 FaSSCoF Solubility Run 2

| SMILES | IC50 [2] | other results |
| --- | --- | --- |
| COc1cc(Nc2cc(Oc3ccc(NC(=O)Nc4cc(C(C)(C)C)on4)c4ccccc34)ccn2)cc(OCCOCCOCC(=O)O)c1 [Example 17, 2-(2-(2-(3-((4-((4-(3-(5-(tert-Butyl)isoxazol-3-yl)ureido)naphthalen-1-yl)oxy)pyridin-2-yl)amino)-5-methoxyphenoxy)ethoxy)ethoxy)acetic acid] |  | solubility thermodynamic at 24 h [1, 3]: 1700 µg/mL (≈ 2480 µM); solubility thermodynamic at 24 h [1, 4]: 1500 µg/mL (≈ 2190 µM) |
| COc1cc(Nc2cc(Oc3ccc(NC(=O)Nc4cc(C(C)(C)C)cc(NS(C)(=O)=O)c4OC)c4ccccc34)ccn2)cc(OCCOCCn2cc(C(=O)O)cn2)c1 [Example 22] | 18.1 nM |  |
| COc1cc(Nc2cc(Oc3ccc(NC(=O)Nc4cc(C(C)(C)C)cc(NS(C)(=O)=O)c4OC)c4ccccc34)ccn2)cc(OCCOCc2cc(C(=O)O)co2)c1 [Example 12, 5-((2-(3-((4-((4-(3-(5-(tert-Butyl)-2-methoxy-3-(methylsulfonamido)phenyl)ureido)naphthalen-1 yl)oxy)pyridin-2-yl)amino)-5-methoxyphenoxy)ethoxy)methyl)furan-3-carboxylic acid] | 5.6 nM |  |
| COc1cc(Nc2cc(Oc3ccc(NC(=O)Nc4cc(C(C)(C)C)cc(S(C)(=O)=O)c4OC)c4ccccc34)ccn2)cc(OCCOCCOCC(=O)O)c1 [Example 9, 2-(2-(2-(3-((4-((4-(3-(5-(tert-Butyl)-2-methoxy-3-(methylsulfonyl)phenyl)ureido)naphthalen-1-yl)oxy)pyridin-2-yl)amino)-5-methoxphenoxy)ethoxy)ethoxy)acetic acid] | 11.7 nM | solubility thermodynamic at 24 h [1, 3]: 460 µg/mL (≈ 573 µM); solubility thermodynamic at 24 h [1, 4]: 540 µg/mL (≈ 673 µM) |
| COc1cc(Nc2cc(Oc3ccc(NC(=O)Nc4cc(C(C)(C)C)cc(NS(C)(=O)=O)c4OC)c4ccccc34)ccn2)cc(OCCOCc2ccc(C(=O)O)s2)c1 [Example 26] | 15.3 nM |  |
| CCS(=O)(=O)Nc1cc(C(C)(C)C)cc(NC(=O)Nc2ccc(Oc3ccnc(Nc4cc(OC)cc(OCCOCCOCC(=O)O)c4)c3)c3ccccc23)c1OC [Example 16] | 16.3 nM |  |
| COc1cc(Nc2cc(Oc3ccc(NC(=O)Nc4cc(C(C)(C)C)cc(NS(C)(=O)=O)c4OC)c4ccccc34)ccn2)cc(OCCOCC2CC(C(=O)O)CO2)c1 (centres unmarked) [Example 13, 5-((2-(3-((4-((4-(3-(5-(tert-Butyl)-2-methoxy-3-methylsulfonamido)phenylureido)naphthalen-1-yl)oxy)pyridin-2-yl)amino)-5-methoxyphenoxy)ethoxy)methyl)tetrahydrofuran-3-carboxylic acid] | 2.8 nM |  |
| [2H]C([2H])([2H])Oc1c(NC(=O)Nc2ccc(Oc3ccnc(Nc4cc(OC)cc(OCCOCCOCC(=O)O)c4)c3)c3ccccc23)cc(C(C)(C)C)cc1NS(C)(=O)=O [Example 5, 2-(2-(2-(3-((4-((4-(3-(5-(tert-Butyl)-2-(methoxy-d3)-3-(methylsulfonamido)phenyl)ureido)-naphthalen-1-yl)oxy)pyridin-2-yl)amino)-5-methoxyphenoxy)ethoxy)ethoxy)acetic acid] | 19.5 nM |  |
| COc1cc(Nc2cc(Oc3ccc(NC(=O)Nc4cc(C(C)(C)C)cc(NS(C)(=O)=O)c4OC)c4ccccc34)ccn2)cc(OCCOCCOCC(=O)NS(C)(=O)=O)c1 [Example 6] | 18.1 nM |  |
| CCS(=O)(=O)c1cc(C(C)(C)C)cc(NC(=O)Nc2ccc(Oc3ccnc(Nc4cc(OC)cc(OCCOCCOCC(=O)O)c4)c3)c3ccccc23)c1OC [Example 15] | 16.4 nM |  |
| COc1cc(Nc2cc(Oc3ccc(NC(=O)Nc4cc(C(C)(C)C)cc(NS(C)(=O)=O)c4OC)c4ccccc34)ccn2)cc(OCCOCC(=O)O)c1 [Example 24] | 61.9 nM |  |
| COc1cc(Nc2cc(Oc3ccc(NC(=O)Nc4cc(C(C)(C)C)cc(NS(C)(=O)=O)c4OC)c4ccccc34)ccn2)cc(OCCOCCOCc2cc(=O)o[nH]2)c1 [Example 18] | 29.3 nM |  |
| COc1cc(Nc2cc(Oc3ccc(NC(=O)Nc4cc(C(C)(C)C)cc(NS(C)(=O)=O)c4OC)c4ccccc34)ccn2)cc(OCCOCCOC(C)(C)C(=O)O)c1 [Example 21] | 14.4 nM |  |
| COc1c(NC(=O)Nc2ccc(Oc3ccnc(Nc4cc(OCCOCCOCC(=O)O)cc(OC(F)F)c4)c3)c3ccccc23)cc(C(C)(C)C)cc1NS(C)(=O)=O [Example 28] | 20.6 nM |  |
| COc1cc(Nc2cc(Oc3ccc(NC(=O)Nc4cc(C(C)(C)C)cc([S+](C)[O-])c4OC)c4ccccc34)ccn2)cc(OCCOCCOCC(=O)O)c1 (centres unmarked) [Example 8, 2-(2-(2-(3-((4-((4-(3-(5-(tert-Butyl)-2-methoxy)-3-(methylsulfinyl)phenylureido)naphthalen-1-yl)oxy)pyridin-2-yl)amino)-5-methoxyphenoxy)ethoxy)ethoxy)acetic acid] | 8 nM | solubility thermodynamic at 24 h [1, 3]: 2800 µg/mL (≈ 3560 µM); solubility thermodynamic at 24 h [1, 4]: 3200 µg/mL (≈ 4070 µM) |
| COc1cc(Nc2cc(Oc3ccc(NC(=O)Nc4cc(C(C)(C)C)cc(NS(C)(=O)=O)c4OC)c4ccccc34)ccn2)cc(OCCOCCSCC(=O)O)c1 [Example 19, 2-((2-(2-(3-((4-((4-(3-(5-(tert-Butyl)-2-methoxy-3-(methylsulfonamido)phenyl)ureido)-naphthalen-1-yl)oxy)pyridin-2-yl)amino)-5-methoxyphenoxy)ethoxy)ethyl)thio)acetic acid] | 2.9 nM | solubility thermodynamic at 24 h [1, 3]: 30 µg/mL (≈ 36 µM); solubility thermodynamic at 24 h [1, 4]: 30 µg/mL (≈ 36 µM) |
| COc1cc(Nc2cc(Oc3ccc(NC(=O)Nc4cc(C(C)(C)C)cc(NS(C)(=O)=O)c4OC)c4ccccc34)ccn2)cc(OCCOCc2cc(C(=O)O)cs2)c1 [Example 27] | 7.3 nM |  |
| COc1cc(Nc2cc(Oc3ccc(NC(=O)Nc4cc(C(C)(C)C)cc(NS(C)(=O)=O)c4OC)c4ccccc34)ccn2)cc(OCCOCCOCC(=O)NS(=O)(=O)N(C)C)c1 [Example 25] | 26.3 nM |  |
| COc1cc(Nc2cc(Oc3ccc(NC(=O)Nc4cc(C(C)(C)C)cc(NS(C)(=O)=O)c4OC)c4ccccc34)ccn2)cc(OCCOCCOC(C)C(=O)O)c1 (single isomer, unassigned) [20(a)] |  | solubility thermodynamic at 24 h [1, 3]: 620 µg/mL (≈ 745 µM); solubility thermodynamic at 24 h [1, 4]: 640 µg/mL (≈ 769 µM) |
| COc1cc(Nc2cc(Oc3ccc(NC(=O)Nc4cc(C(C)(C)C)cc(P(C)(C)=O)c4OC)c4ccccc34)ccn2)cc(OCCOCCOCC(=O)O)c1 [Example 10, 2-(2-(2-(3-((4-((4-(3-(5-(tert-Butyl)-3-(dimethylphosphoryl)-2-methoxyphenyl)ureido)-naphthalen-1-yl)oxy)pyridin-2-yl)amino)-5-methoxyphenoxy)ethoxy)ethoxy)acetic acid] | 26.5 nM |  |
| COc1cc(Nc2nccc(Oc3ccc(NC(=O)Nc4cc(C(C)(C)C)cc(NS(C)(=O)=O)c4OC)c4ccccc34)n2)cc(OCCOCCOCCC(=O)O)c1 [Reference Compound A (sodium salt), reference compound] |  | solubility thermodynamic at 24 h ([1]; Run 3, read-out: pH 6.5 FaSSCoF Solubility Run 3): 30 µg/mL; solubility thermodynamic at 24 h ([1]; Run 4, read-out: pH 6.5 FaSSCoF Solubility Run 4): 30 µg/mL; pH 6.5 FaSSCoF Solubility Run 1 ([1]; 24 h, Run 1): 0.18 mg/mL; pH 6.5 FaSSCoF Solubility Run 2 ([1]; 24 h, Run 2): 0.12 mg/mL |
| COc1cc(Nc2cc(Oc3ccc(NC(=O)Nc4cc(C(C)(C)C)cc(NS(C)(=O)=O)c4OC)c4ccccc34)ccn2)cc(C(=O)NCCOCCOCC(=O)O)c1 [Example 1, 2-(2-(2-(3-((4-((4-(3-(5-(tert-Butyl)-2-methoxy-3-(methylsulfonamido)phenyl)ureido)-naphthalen-1-yl)oxy)pyridin-2-yl)amino)-5-methoxybenzamido)ethoxy)ethoxy)acetic acid, hydrochloride salt] | 115 nM |  |
| COc1cc(Nc2cc(Oc3ccc(NC(=O)Nc4cc(C(C)(C)C)cc(NS(C)(=O)=O)c4OC)c4ccccc34)ccn2)cc(OCCOCCOC(C)C(=O)O)c1 (centres unmarked) [Example 14] |  | solubility thermodynamic at 24 h [1, 3]: 1200 µg/mL (≈ 1440 µM); solubility thermodynamic at 24 h [1, 4]: 1100 µg/mL (≈ 1320 µM) |
